Laboratory results as given in patent US9493466B2, “Treatment of cancer with TOR kinase inhibitors” (Signal Pharmaceuticals, LLC, priority 2011, dated 2016).

How the values were obtained:
Experiment in all cases: Growth inhibition assay for NHL lines
Assay type in all cases: cell-based
MOLM-13 = details: MOLM-13, Leukemia M-AML, 96 hours, n ≧ 3
Method: (§1) Growth Inhibition Assay for HCC and NHL Lines. The seeding density for each cell line was optimized to ensure assay linearity in 384-well plates.
(§2) Compound 1 was dissolved in dimethyl sulfoxide (DMSO) to prepare a 10 mM stock solution. A serial titration was performed to produce a working concentration range of […] to 10 mM. Aliquots to produce final concentrations of 1.5 nM to 10 μM were spotted via an acoustic dispenser (EDC ATS-100) into an empty 384-well plate. Compound 1 was spotted in a 10-point serial dilution fashion (3-fold dilution) in duplicate within the plate. The DMSO concentration was kept constant for a final assay concentration of 0.1% DMSO. Plates were replicated for use with different cell lines and testing periods. After compound plate replication, all plates were sealed (Agilent ThermoLoc) and stored at −20° C. for up to 1 month. […] When ready for testing, plates were removed from the freezer, thawed, and unsealed just prior to the addition of the test cells. Prior to testing, cells were grown and expanded in culture flasks to provide sufficient amounts of starting material. Cells were then diluted to the appropriate densities and added directly to the compound-spotted 384-well plates. Cells were allowed to grow for 96 hours at 37° C./5% CO2. At the time when compound was added (t0), initial cell number was assessed via a viability assay (Cell Titer-Glo) by quantifying the level of luminescence generated by ATP present in viable cells. After 96 hours, cell viability of compound-treated cells was assessed via Cell Titer-Glo and luminescence measurement. Cell lines were assayed for growth inhibition by Compound 1 in at least 3 independent tests. A control cell line (the lung tumor cell line, A549) was included in each of the assays. The compound response against this control cell line was monitored closely to enable comparison of the data generated through the assay period. All data were normalized and presented as a percentage of the DMSO-treated cells. Results were then expressed as a GI50 value. The GI50 value corrects for the cell count at time zero. In addition, the IC50 value of Compound 1 for each cell line was calculated.

WSU-FSCCL = details: NHL FL, 96 hours, n ≧ 3
Method: as §1, §2

KARPAS-422 = details: KARPAS-422, NHL DLBCL, 96 hours, n ≧ 3
Method: as §1, §2

Mino = details: NHL MCL, 96 hours, n ≧ 3
Method: as §1, §2

Granta-519 = details: Granta-519, NHL MCL, 96 hours, n ≧ 3
Method: as §1, §2

Farage = details: NHL DLBCL, 96 hours, n ≧ 3
Method: as §1, §2

OCI-LY-3 = details: OCI-LY-3, NHL DLBCL, 96 hours, n ≧ 3
Method: as §1, §2

JEKO-1 = details: JEKO-1, NHL MCL, 96 hours, n ≧ 3
Method: as §1, §2

RIVA = details: NHL DLBCL, 96 hours, n ≧ 3
Method: as §1, §2

NU-DHL-1 = details: NU-DHL-1, NHL DLBCL, 96 hours, n ≧ 3
Method: as §1, §2

U-2932 = details: U-2932, NHL DLBCL, 96 hours, n ≧ 3
Method: as §1, §2

REC-1 = details: REC-1, NHL MCL, 96 hours, n ≧ 3
Method: as §1, §2

Toledo = details: NHL DLBCL, 96 hours, n ≧ 3
Method: as §1, §2

KASUMI-1 = details: KASUMI-1, Leukemia M-AML, 96 hours, n ≧ 3
Method: as §1, §2

Pfeiffer = details: NHL DLBCL, 96 hours, n ≧ 3
Method: as §1, §2

SU-DHL-16 = details: SU-DHL-16, NHL DLBCL, 96 hours, n ≧ 3
Method: as §1, §2

KARPAS-299 = details: KARPAS-299, ALCL T-cell, 96 hours, n ≧ 3
Method: as §1, §2

U-2940 = details: U-2940, NHL DLBCL, 96 hours, n ≧ 3
Method: as §1, §2

OCI-LY-19 = details: OCI-LY-19, NHL DLBCL, 96 hours, n ≧ 3
Method: as §1, §2

OCI-LY-10 = details: OCI-LY-10, NHL DLBCL, 96 hours, n ≧ 3
Method: as §1, §2

JVM-13 = details: JVM-13, NHL MCL, 96 hours, n ≧ 3
Method: as §1, §2

KG-1 = details: KG-1, Leukemia M-AML, 96 hours, n ≧ 3
Method: as §1, §2

WSU-DLCL2 = details: WSU-DLCL2, NHL DLBCL, 96 hours, n ≧ 3
Method: as §1, §2

DOHH-2 = details: DOHH-2, NHL FL, 96 hours, n ≧ 3
Method: as §1, §2

Question: For `CO[C@H]1CC[C@H](N2C(=O)CNc3ncc(-c4ccc(C(C)(C)O)nc4)nc32)CC1` [Compound 1, 7-(6-(2-hydroxypropan-2-yl)pyridin-3-yl)-1-((1r,4r)-4-methoxycyclohexyl)-3,4-dihydropyrazino-[2,3-b]pyrazin-2(1H)-one], which GI50 (MOLM-13) is on record?
Answer: The GI50 was 110 ± 20 nM.

Question: What about the IC50 (MOLM-13) of the same compound?
Answer: The IC50 was 140 ± 20 nM.

Question: What about the GI50 (WSU-FSCCL) of the same compound?
Answer: The GI50 was 160 ± 40 nM.

Question: What about the IC50 (WSU-FSCCL) of the same compound?
Answer: The IC50 was 190 ± 40 nM.

Question: And the GI50 (KARPAS-422)?
Answer: Its GI50 is 20 ± 10 nM.

Question: And the IC50 (KARPAS-422)?
Answer: Its IC50 is 20 ± 10 nM.

Question: What about the GI50 (Mino) of the same compound?
Answer: Its GI50 is 370 ± 130 nM.

Question: What about the IC50 (Mino) of the same compound?
Answer: Its IC50 is 480 ± 100 nM.

Question: And the GI50 (Granta-519)?
Answer: Its GI50 is 380 ± 80 nM.

Question: What about the IC50 (Granta-519) of the same compound?
Answer: Its IC50 is 960 ± 100 nM.

Question: And the GI50 (Farage)?
Answer: Its GI50 is 270 ± 30 nM.

Question: What about the IC50 (Farage) of the same compound?
Answer: Its IC50 is 280 ± 40 nM.

Question: And the GI50 (OCI-LY-3)?
Answer: Its GI50 is 210 ± 60 nM.

Question: And the IC50 (OCI-LY-3)?
Answer: The IC50 was 290 ± 70 nM.

Question: What about the GI50 (JEKO-1) of the same compound?
Answer: The GI50 was 70 ± 40 nM.

Question: And the IC50 (JEKO-1)?
Answer: The IC50 was 100 ± 50 nM.

Question: What about the GI50 (RIVA) of the same compound?
Answer: Its GI50 is 20 ± 10 nM.

Question: What about the IC50 (RIVA) of the same compound?
Answer: The IC50 was 100 ± 50 nM.

Question: And the GI50 (NU-DHL-1)?
Answer: Its GI50 is 80 ± 30 nM.

Question: And the IC50 (NU-DHL-1)?
Answer: The IC50 was 110 ± 50 nM.

Question: What about the GI50 (U-2932) of the same compound?
Answer: The GI50 was 300 ± 30 nM.

Question: And the IC50 (U-2932)?
Answer: Its IC50 is 450 ± 10 nM.

Question: What about the GI50 (REC-1) of the same compound?
Answer: The GI50 was 200 ± 40 nM.

Question: What about the IC50 (REC-1) of the same compound?
Answer: The IC50 was 260 ± 50 nM.

Question: And the GI50 (Toledo)?
Answer: The GI50 was 70 ± 20 nM.

Question: And the IC50 (Toledo)?
Answer: The IC50 was 440 ± 20 nM.

Question: And the GI50 (KASUMI-1)?
Answer: Its GI50 is 40 ± 20 nM.

Question: And the IC50 (KASUMI-1)?
Answer: The IC50 was 120 ± 30 nM.

Question: What about the GI50 (Pfeiffer) of the same compound?
Answer: Its GI50 is 90 ± 40 nM.

Question: And the IC50 (Pfeiffer)?
Answer: The IC50 was 190 ± 70 nM.

Question: And the GI50 (SU-DHL-16)?
Answer: Its GI50 is 110 ± 20 nM.

Question: And the IC50 (SU-DHL-16)?
Answer: Its IC50 is 110 ± 20 nM.

Question: What about the GI50 (KARPAS-299) of the same compound?
Answer: Its GI50 is 330 ± 120 nM.

Question: And the IC50 (KARPAS-299)?
Answer: The IC50 was 470 ± 220 nM.

Question: What about the GI50 (U-2940) of the same compound?
Answer: Its GI50 is 110 ± 70 nM.

Question: What about the IC50 (U-2940) of the same compound?
Answer: Its IC50 is 180 ± 100 nM.

Question: And the GI50 (OCI-LY-19)?
Answer: Its GI50 is 220 ± 60 nM.

Question: What about the IC50 (OCI-LY-19) of the same compound?
Answer: Its IC50 is 350 ± 80 nM.

Question: What about the GI50 (OCI-LY-10) of the same compound?
Answer: The GI50 was 140 ± 40 nM.

Question: And the IC50 (OCI-LY-10)?
Answer: Its IC50 is 190 ± 40 nM.

Question: And the GI50 (JVM-13)?
Answer: Its GI50 is 1770 ± 1610 nM.

Question: What about the IC50 (JVM-13) of the same compound?
Answer: Its IC50 is 3490 ± 2480 nM.

Question: And the GI50 (KG-1)?
Answer: The GI50 was 60 ± 20 nM.

Question: And the IC50 (KG-1)?
Answer: The IC50 was 370 ± 40 nM.

Question: And the GI50 (WSU-DLCL2)?
Answer: The GI50 was 90 ± 20 nM.

Question: And the IC50 (WSU-DLCL2)?
Answer: The IC50 was 90 ± 20 nM.

Question: What about the GI50 (DOHH-2) of the same compound?
Answer: Its GI50 is 130 ± 20 nM.

Question: What about the IC50 (DOHH-2) of the same compound?
Answer: Its IC50 is 160 ± 30 nM.
